Like-named read-outs stand apart in the source and are kept apart here. Values belong to the molecule of their own block, whether it stands above or below them.
Key:
[1] = Stability of sumatriptan succinate in water and buffers of pH 2, 5, 7, 9 (HPLC); assay type: physicochemical; settings: buffers with a pH of about 2 to 5, one month at 50° C. (additional studies not presented)
Protocol: After mixing thoroughly, a 1 mL aliquot was removed for high performance liquid chromatography (HPLC) analysis. The remaining volume was then split into a glass tube to be kept at room temperature, and another glass tube to be kept at 50° C. Samples were pulled periodically from the 50° C. tubes for one month and analyzed by HPLC.
As used herein, degradation in percent area by area is that amount of degradation that is the ratio of the sum total of degradation peaks divided by the response factor (sumatriptan's standard curve slope value) multiplied by 100, and not a quantified amount of degradation.

[2] = cited from earlier work
[3] = Characterization of unknown oxidation impurity (LC-MS, HPLC); assay type: physicochemical
Protocol: HPLC conditions were the same as that for impurity C and D analysis, and the product peaks were injected into an electrospray ionization mass spectrometer.
To confirm whether oxidation of sumatriptan would lead to the formation of this impurity, sumatriptan succinate was incubated with 25% H2O2 for 2 hours and 24 hours followed by LC-MS analysis.
To test the presence of this impurity in sumatriptan succinate procured from different vendors, solid sumatriptan in powder form as well as sumatriptan dissolved in water were analyzed by HPLC.

[4] = Formulation at different pH: impurities after two weeks at 50° C.; assay type: physicochemical; settings: unbuffered (self-buffering)
Protocol: Sumatriptan succinate has a self-buffering capacity due to it being a succinic acid salt.
These formulations were kept on stability studies at 50° C. for two weeks.
Levels of each impurity are expressed as percentage (w/w) of sumatriptan, and RT is the retention time in minutes.

physchem = settings: thermodynamic from solid
Protocol: By apparent solubility is meant the solubility of the sumatriptan determined visually. The materials used were sumatriptan succinate and various reagents for preparation of the buffers. Hydrochloric acid was used for preparation of the pH 2 buffer, acetate for preparation of the pH 5 buffer, phosphate for preparation of the pH 7 buffer, and carbonate for the pH 9 buffer. The concentration of the buffers was 0.1 M.
A 1 mL aliquot of each buffer was placed in a glass scintillation vial. To this volume was added a small amount of sumatriptan. Each amount of sumatriptan was weighed on a balance. Weights typically ranged from between 5 and 35 mg. After each new addition of sumatriptan, the vial was shaken and visually inspected to determine if all of the sumatriptan was in solution. When small particles of undissolved sumatriptan appeared, no further amount of sumatriptan was added. These amounts of sumatriptan added before the final addition was added together and were listed as the lower limit of each pH. The upper limit of solubility was taken to be the sum total of sumatriptan added to the buffer when undissolved sumatriptan appeared. […] The diamond symbol in FIG. 1 represents the average value between the lower and upper limit.

[5] = pH 5
Protocol: The percent of sumatriptan recovered, i.e., the experimentally determined amount (mg/mL) of sumatriptan divided by the theoretical amount present at each stage, is also provided.
The final stage of the excipient screen was used to establish a compatible preservative. […] Specifically, Stage II samples were removed and split into two tubes each containing 2.5 mL and the remaining solution kept as a control. […] These solutions were then stored at 50° C. for one month and periodically analyzed by HPLC.
The stability and solubility of sumatriptan compositions in acetate buffer with the preservative was also tested. These samples were mixed in a 1:1 ratio.

Molecule: PEG 400
- Percent Degradation After 1 month at 50° C. [5]: 14%

Molecule: Tween ™ 80
- Percent Degradation After 1 month at 50° C. [5]: 0.49%

Now from value to molecule, other results behind:

- degradation [1]: 1.5%
- oxidation impurity (chromatogram) ([3]; 25% v/v H2O2 solution at room temperature for 2 hours): formation of the oxidation impurity
- oxidation impurity (HPLC) ([3]; aqueous solution at 50° C. for two weeks): formed upon incubation
- oxidation impurity (chromatogram) ([3]; solid powder at 4° C.): not present
- oxidation impurity (chromatogram) ([3]; solid powder at 50° C.): not present
- pH of solutions [4]: 4.5-5
- solubility (physchem; aqueous buffer, apparent solubility): 100 to 115 mg/mL
- solubility (physchem; pH 2, simulated gastric fluid, Apparent solubility, Lower Limit): 149 mg/mL
- solubility (physchem; pH 2, simulated gastric fluid, Apparent solubility, Upper Limit): 162 mg/mL
- solubility (physchem; pH 5, aqueous buffer, Apparent solubility, Lower Limit): 110 mg/mL
- solubility (physchem; pH 5, aqueous buffer, Apparent solubility, Upper Limit): 120 mg/mL
- solubility (physchem; pH 7, aqueous buffer, Apparent solubility, Lower Limit): 138 mg/mL
- solubility (physchem; pH 7, aqueous buffer, Apparent solubility, Upper Limit): 151 mg/mL
- solubility (physchem; pH 9, aqueous buffer, Apparent solubility, Lower Limit): 138 mg/mL
- solubility (physchem; pH 9, aqueous buffer, Apparent solubility, Upper Limit): 140 mg/mL
Molecule: CNS(=O)(=O)Cc1ccc2[nH]cc(CCN(C)C)c2c1.O=C(O)CCC(=O)O [Sumatriptan succinate, 3-[2-(dimethylamino)ethyl]-N-methyl-indole-5-methanesulfonamide succinate (1:1)]
- bioavailability ([2]; 6 mg subcutaneous injection): 97%
- bioavailability ([2]; 20 mg nasal spray): 17%
- Tmax ([2]; 50 mg tablet): 2.5 h
- elimination half-life ([2]; in vivo): about 2 hours
- Tmax ([2]; nasal spray): 1 h
- absolute bioavailability ([2]; oral administration): about 14%
- Tmax ([2]; subcutaneous injection): 0.2 h

- Percent Degradation After 1 month at 50° C. [5]: 0.64%
Molecule: HPMC

- Percent Degradation After 1 month at 50° C. [5]: 0.07%
Molecule: Xanthan Gum
